Results from patent publication US12220398B2, “Tumor therapeutic agent” (Eisai R&D Management Co., Ltd., priority 2015, dated 2025).

Key:
Type in all cases: in vivo
[1] = system: human osteosarcoma cell line (143B); assay: Tumor growth inhibitory activity against human osteosarcoma cell line (143B) subcutaneous transplantation models; conditions: 143B s.c. xenograft in NOD SCID mice, lenvatinib mesylate 3 mg/kg p.o. Day 1-7, ifosfamide 250 mg/kg i.p. Day 1, etoposide 8 mg/kg i.p. Day 2-4, control group 785.4
Procedure: Using 6 NOD SCID mice (NOD.CB17-Prkdc^scid/J, female mice, Charles River Laboratories Japan, Inc.) in each group, antitumor effects were evaluated when lenvatinib alone, a combination of two agents, i.e., ifosfamide and etoposide, or a combination of three agents, i.e., lenvatinib, ifosfamide, and etoposide, was administered. Cells of osteosarcoma cell line 143B (ATCC CRL-8303) derived from human were suspended at a concentration of 1×10^7 cells/mL, and 0.1 mL of the suspension was subcutaneously transplanted to the right flank of each mouse.
The longest diameter and short axis of the tumor were measured with an electronic digital caliper (Digimatic (tread mark) Caliper, Mitutoyo Corporation) 9 days after transplantation. The mice were divided into groups so that the average value of the tumor volume of each group was almost equal (Day 1). The tumor volume was calculated according to the following equation: Tumor volume=longest diameter(mm)×short axis(mm)×short axis(mm)/2
Lenvatinib mesylate was dissolved in purified water to a concentration of 0.3 mg/mL. Ifosfamide (Sigma Aldrich) was dissolved in a physiological saline solution to a concentration of 25 mg/mL. […]
(§1) The tumor volume of each mouse was measured 8 days (Day 8) after the start of administration.

[2] = system: human osteosarcoma cell line (HOS); assay: Tumor growth inhibitory activity against human osteosarcoma cell line (HOS) subcutaneous transplantation models; conditions: HOS s.c. xenograft in NOD SCID mice, lenvatinib mesylate 3 mg/kg p.o. Day 1-7, ifosfamide 250 mg/kg i.p. Day 1, etoposide 8 mg/kg i.p. Day 2-4, control group 468.6
Procedure: Tumor growth inhibitory activity of the combined use of lenvatinib, ifosfamide, and etoposide against human osteosarcoma cell line (HOS) subcutaneous transplantation models
Using 6 NOD SOD mice (NOD.CB17-Prkdc^scid/J, female mice, Charles River Laboratories Japan, Inc.) in each group, antitumor effects were evaluated when lenvatinib alone, a combination of two agents, i.e., ifosfamide and etoposide, or a combination of three agents, i.e., lenvatinib, ifosfamide, and etoposide, was administered. Cells of osteosarcoma cell line HOS (Human Science Research Resources Bank, IFO50106) derived from human were suspended at a concentration of 1×10^8 cells/mL, and 0.1 mL of the suspension was subcutaneously transplanted to the right of each mouse.
The longest diameter and short axis of the tumor were measured with an electronic digital caliper (Digimatic (tread mark) Caliper, Mitutoyo Corporation) 18 days after transplantation. The mice were divided into groups so that the average value of the tumor volume of each group was almost equal (Day 1). The tumor volume was calculated according to the following equation: Tumor volume=longest diameter(mm)×short axis(mm)×short axis(mm)/2
Lenvatinib mesylate was dissolved in purified water to a concentration of 0.3 mg/mL. […]
as §1

[3] = system: human osteosarcoma cell line (G-292 clone A141B1); assay: Tumor growth inhibitory activity against human osteosarcoma cell line (G-292 clone A141B1) subcutaneous transplantation models; conditions: G-292 clone A141B1 s.c. xenograft in NOD SCID mice, lenvatinib mesylate 3 mg/kg p.o. Day 1-7, ifosfamide 250 mg/kg i.p. Day 1, etoposide 8 mg/kg i.p. Day 2-4, control group 362.5
Procedure: Using 6 NOD SCID mice (NOD.CB17-Prkdc^scid/J, female mice, Charles River Laboratories Japan, Inc.) in each group, antitumor effects were evaluated when lenvatinib alone, a combination of two agents, i.e., ifosfamide and etoposide, or a combination of three agents, i.e., lenvatinib, ifosfamide, and etoposide, was administered. Cells of osteosarcoma cell line G-292 clone A141B1 (JCRB Cell Bank, IFO50107) derived from human were suspended at a concentration of 1×10^8 cells/mL, and 0.1 mL of the suspension was subcutaneously transplanted to the right flank of each mouse.
The longest diameter and short axis of the tumor were measured with an electronic digital caliper (Digimatic (tread mark) Caliper, Mitutoyo Corporation) 29 days after transplantation. The mice were divided into groups so that the average value of the tumor volume of each group was almost equal (Day 1). The tumor volume was calculated according to the following equation: Tumor volume=longest diameter(mm)×short axis(mm)×short axis(mm)/2
Lenvatinib mesylate was dissolved in purified water to a concentration of 0.3 mg/mL. lfosfamide (Sigma Aldrich) was dissolved in a physiological saline solution to a concentration of 25 mg/mL. […]
as §1

COc1cc2nccc(Oc3ccc(NC(=O)NC4CC4)c(Cl)c3)c2cc1C(N)=O [Lenvatinib, 4-(3-chloro-4-(cyclopropylaminocarbonyl)aminophenoxy)-7-methoxy-6-quinolinecarboxamide]
Average tumor volume (Day 8) [1]: 438.6 mm^3 | Average tumor volume (Day 8) [2]: 352.2 mm^3 | Average tumor volume (Day 8) [3]: 267.9 mm^3
